These results are taken from paper PMC8032764 (Scientific Reports, 2021).

One data set concerns preclinical species. Further details: method as in PMID 15918586. The conditions noted are these: cited from earlier work.
For a further data set, the target named is GABAA α5β3γ2. The conditions noted are these: Table S4a, read-out: Ki α5β3γ2, cited from earlier work.
For the next data set, the target named is GABAA α2β3γ2. The conditions noted are these: Table S4a, cited from earlier work.
A further data set has as its target GABAA α3β3γ2. The conditions noted are these: Table S4a, cited from earlier work.
A further data set has as its system humans. The conditions noted are these: experimental medicine study; cited from earlier work.
In the next data set the target is GABAA α1β3γ2. The conditions noted are these: Table S4a, cited from earlier work.
The subject of a further data set is healthy elderly humans. The conditions noted are these: cited from earlier work.
Another data set deals with healthy volunteers. Kind of data set: Resting state EEG in healthy volunteers. The conditions noted are these: midazolam single dose, 1 h post dose. The format is in vivo, human. Here is the method:
Full details of the protocol can be found in the Supplementary Information. The study was registered on October 2, 2014 with clinicaltrials.gov identifier NCT02254759. The DDI study was approved by the National Research Ethics Service (NRES) Committee South Central—Berkshire B. EEG was included in the study as one of the pharmacodynamic outcome measures.
Resting state EEG (4 min eyes open, 4 min eyes closed) was recorded at 4 days 1 h and 4 h after dosing at morning (similar time at baseline day). […] The EEG recording from day 16 is not reported here. The EEG technician kept the subject alert (vigilance controlled resting state condition). As soon as drowsiness patterns appeared (slow rolling eye movements, attenuated alpha rhythm replaced by low amplitude), the subject was aroused by auditory stimuli (tapping or clicking).
EEG was recorded from 19 Ag/AgCl electrodes arranged according to the 10/20 system and mounted in an elastic cap. EOG was recorded simultaneously from five electrodes. […]
Power spectral estimates were derived for logarithmically scaled frequencies with a logarithmic frequency smoothing using Morlet Wavelets with a spectral smoothing of 1/2 octave (f/σf = 5.83). […] For analyses of “relative power” the power was normalized to 1 across the frequency range analyzed. […]

The target in the next data set is human GABAA α5β3γ2 (Homo sapiens, UniProt P18507+P31644). Kind of data set: Two-electrode voltage clamp in Xenopus oocytes, current induced by EC10 of GABA. The format is cell-based. On the set-up: expressed in transfected cells; host or cells: Xenopus laevis oocytes, cRNA injection. The conditions noted are these: 1000 nM, n = 12, not shown. The protocol:
Freshly prepared oocytes of maturation stage VI were bought from Ecocyte Bioscience (Castrop-Rauxel, Germany) and, after overnight delivery, plated into 96-well plates (Greiner no. 651101) for microinjection on a ROBOOCYTE R16 system (Multichannel Systems MCS GmbH, Reutlingen, Germany). Each oocyte was injected with roughly 50 nL of RNA solution. The solution for expressing receptors composed of the human α1, β2 and γ2 subunits contained 3 pg/nL of α1 and β2 RNA and 15 pg/nL of γ2 RNA. The solution for expressing human α2β3γ2 receptors contained 2.5 pg/nL of α2 and β3 RNA, 5 pg/nL of γ2 RNA and 10 pg/nL of GABARAP RNA. The solution for expressing human α3β3γ2 receptors contained 1.3 pg/nL of α3 and β3 RNA and 6.5 pg/nL of γ2 RNA. The solution for expressing human α5β3γ2 receptors contained 1.3 pg/nL of α5 and β3 RNA and 13 pg/nL of γ2 RNA. […] After the microinjection the oocytes were kept at 20 °C temperature until the electrophysiological experiment. Experiments were done 3 to 5 days later on the ROBOOCYTE instrument which employs the two-microelectrode voltage-clamp technique for membrane voltage control and current measurement. […] During current recording and compound testing the cell membrane was constantly clamped to − 80 mV. Current signals were recorded and stored on a PC-type computer using the ROBOOCYTE software.
During the microinjection and up to the electrophysiological experiment the oocytes were kept in a solution containing 88 mM NaCl, 1 mM KCl, 2.5 mM NaHCO3, 10 mM HEPES (AppliChem GmbH, Darmstadt, Germany), 0.82 MgSO4, 0.33 mM Ca(NO3)2, 0.33 mM CaCl2, 100 U/mL penicillin (GIBCO, ThermoFisher Scientific) and 100 µg/mL streptomycine (GIBCO, ThermoFisher Scientific). The pH was adjusted to 7.5. During the experiment the voltage-clamped oocyte was constantly superfused by a solution containing 90 mM NaCl, 1 mM KCl, 5 mM HEPES (AppliChem), 1 mM MgCl2 and 1 mM CaCl2 (pH 7.4). GABA and test compounds were added to this solution. GABA concentrations were chosen according to previously determined concentration–response relations for the different human GABAA receptor subunit combinations. Concentrations evoking approximately 10% of a maximal response were selected, i.e., 8 µM for α1β2γ2, 6 µM for α2β3γ2, 10 µM for α3β3γ2 and 5 µM for α5β3γ2. Solutions containing GABA or test compounds were freshly prepared at least every second day. […] Compounds were further diluted in DMSO and finally in extracellular saline to reach a DMSO concentration of 0.1%. The same amount of DMSO was added to the control solutions without test compounds.
During the experiment the solutions were fed into the well containing the voltage-clamped oocyte via Teflon tubings connected by electromagnetic valves which allowed rapid switching between different solutions (controlled by the ROBOCYTE software). Approximately 1–2 min after impaling an oocyte and switching to voltage-clamp mode GABA was applied for 90 s to record a control response. Thereafter the oocyte was washed with saline for 160 s followed by another 90 s GABA application. Then 30 s after the onset of the second GABA application the system switched to a solution containing GABA plus the test compound. Each oocyte was used for testing one concentration of a single test compound (for α5β3γ2: 1 nM: n = 8, 10 nM: n = 8, 100 nM: n = 7, 1000 nM: n = 7).
In this case each GABA application lasted 110 s and the rest period between the two GABA applications was 190 s long.
On each 96-well plate 3–6 oocytes were used for testing a known NAM at the BZD binding site, β-CCM (FG7106), as a positive control. […] Maximally effective concentrations of β-CCM were used for each subunit combination, i.e., 100 nM β-CCM for α1β2γ2, 300 nM for α2β3γ2 or α3β3γ2 and 1 µM for α5β3γ2.
(Two-electrode voltage clamp is typically applied to oocytes expressing channels or transporters.)

For another data set, the target named is T1, human α6β3γ2 (Homo sapiens, UniProt P18507+Q16445).
T1 construct: expressed in transfected cells; host or cells: HEK293-EBNA, transient
The conditions noted are these: previously determined; read-out: Kd of the radiolabel; cited from earlier work.

Another data set concerns non-impaired rodents. The data set can be described thus: Cognitive performance in non-impaired rodents. The conditions noted are these: data not shown. The format is in vivo.
The test system of the next data set is CYP1A2. The conditions noted are these: rats, reduced plasma exposure on chronic dosing; cited from earlier work.
Data set [1] deals with binding sites of [3H]-Ro 15-4513 in the hippocampus. The conditions noted are these: similar experiments; cited from earlier work.

Each structure is given as a SMILES string. Where two headings read alike, the source gives them in different places.

human GABAA α5β3γ2, sequence (P31644 32-462): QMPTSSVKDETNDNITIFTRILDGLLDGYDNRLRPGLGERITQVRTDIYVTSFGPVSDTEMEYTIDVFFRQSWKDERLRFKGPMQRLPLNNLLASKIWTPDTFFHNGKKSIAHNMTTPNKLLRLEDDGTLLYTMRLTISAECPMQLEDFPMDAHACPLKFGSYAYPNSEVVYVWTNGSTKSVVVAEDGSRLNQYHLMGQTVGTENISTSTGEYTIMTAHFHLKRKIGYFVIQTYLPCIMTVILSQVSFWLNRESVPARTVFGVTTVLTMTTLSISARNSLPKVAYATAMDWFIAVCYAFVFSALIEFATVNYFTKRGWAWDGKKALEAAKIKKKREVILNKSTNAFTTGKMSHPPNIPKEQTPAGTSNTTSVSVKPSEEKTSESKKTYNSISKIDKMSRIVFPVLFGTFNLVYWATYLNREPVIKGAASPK
human GABAA α5β3γ2, sequence (P28472 26-473 partner): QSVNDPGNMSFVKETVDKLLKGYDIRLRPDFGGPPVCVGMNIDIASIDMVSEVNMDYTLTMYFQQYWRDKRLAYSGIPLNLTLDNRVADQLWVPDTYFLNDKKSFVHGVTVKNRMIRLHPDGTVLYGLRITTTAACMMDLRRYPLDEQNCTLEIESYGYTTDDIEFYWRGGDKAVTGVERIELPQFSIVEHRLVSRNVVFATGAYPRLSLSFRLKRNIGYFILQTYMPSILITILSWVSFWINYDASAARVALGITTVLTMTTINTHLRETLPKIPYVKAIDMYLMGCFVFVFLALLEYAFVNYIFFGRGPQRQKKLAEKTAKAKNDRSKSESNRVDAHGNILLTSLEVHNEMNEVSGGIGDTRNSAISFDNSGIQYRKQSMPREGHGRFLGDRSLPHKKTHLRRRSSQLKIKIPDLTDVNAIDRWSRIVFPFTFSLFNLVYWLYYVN
human GABAA α5β3γ2, sequence (P18507 40-475): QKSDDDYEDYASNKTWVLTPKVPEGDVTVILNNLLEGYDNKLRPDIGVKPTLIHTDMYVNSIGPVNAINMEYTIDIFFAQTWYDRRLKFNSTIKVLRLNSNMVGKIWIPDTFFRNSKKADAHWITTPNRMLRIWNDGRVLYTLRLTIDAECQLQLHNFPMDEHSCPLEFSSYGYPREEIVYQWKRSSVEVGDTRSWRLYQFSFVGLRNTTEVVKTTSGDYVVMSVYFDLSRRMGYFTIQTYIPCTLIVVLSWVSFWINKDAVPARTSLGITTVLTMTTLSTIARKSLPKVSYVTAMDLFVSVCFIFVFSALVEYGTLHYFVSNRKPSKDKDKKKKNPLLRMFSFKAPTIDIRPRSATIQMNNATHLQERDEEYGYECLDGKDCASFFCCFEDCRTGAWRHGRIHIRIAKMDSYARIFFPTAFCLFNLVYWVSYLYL
T1 sequence (Q16445 20-453): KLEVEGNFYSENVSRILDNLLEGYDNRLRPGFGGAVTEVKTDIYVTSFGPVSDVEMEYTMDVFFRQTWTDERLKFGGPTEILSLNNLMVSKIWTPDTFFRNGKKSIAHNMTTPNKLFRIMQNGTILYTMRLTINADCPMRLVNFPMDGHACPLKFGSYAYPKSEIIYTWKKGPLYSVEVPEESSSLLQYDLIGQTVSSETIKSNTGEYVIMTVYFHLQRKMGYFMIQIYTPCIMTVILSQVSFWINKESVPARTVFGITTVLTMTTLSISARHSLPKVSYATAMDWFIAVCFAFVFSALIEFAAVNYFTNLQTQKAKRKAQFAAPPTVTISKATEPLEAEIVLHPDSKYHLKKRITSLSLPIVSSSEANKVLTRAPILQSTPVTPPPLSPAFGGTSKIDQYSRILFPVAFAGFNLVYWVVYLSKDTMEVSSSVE
T1 sequence (P28472 26-473 partner): as the sequence (P28472 26-473 partner) above
T1 sequence (P18507 40-475): as the sequence (P18507 40-475) above

For orientation: Ki means the dissociation constant of the complex between target and ligand, obtained from inhibition or displacement. `Cc1cc(-c2nnc3c4ccccc4c(OCc4cn(C)nn4)nn23)no1` [α5IA]: the “reason why development was stopped” value in the data set with preclinical species was “renal toxicity in preclinical species”. The Ki at GABAA α5β3γ2 (ref Dawson et al., 2006) was 0.7 nM; on GABAA α2β3γ2 (ref Dawson et al., 2006), 0.6 nM; on GABAA α3β3γ2 (ref Dawson et al., 2006), 0.6 nM; on GABAA α1β3γ2 (ref Dawson et al., 2006), 0.9 nM. The “alcohol-induced impairment in word list recall” value in the data set with humans is “reversed an alcohol-induced impairment in word list recall”.
Turning to `Cc1cc(-c2nncc3c(C(C)(C)C)c(OCc4ncnn4C)nn23)no1` [MRK-016, 3-tert-butyl-7-(5-methylisoxazol-3-yl)-2-(1-methyl-1H-1,2,4-triazol-5-ylmethoxy)-pyrazolo[1,5-d]-[1,2,4]triazine], the Ki on GABAA α5β3γ2 (ref Atack et al. 2009) was 1.4 nM; at GABAA α2β3γ2 (ref Atack et al. 2009), 0.9 nM; at GABAA α1β3γ2 (ref Atack et al. 2009), 0.8 nM. Besides, the “reason why development was stopped” value in the data set with healthy elderly humans is listed as “poor tolerability in healthy elderly humans”.
Consider `Cc1ncc2n1-c1ccc(Cl)cc1C(c1ccccc1F)=NC2` [midazolam, reference compound], for which the “change of relative EEG power in the beta band” value in the data set with healthy volunteers came out at 32.2 ± 7.04%. Besides, the “increase of the GABA-induced current” value on human GABAA α5β3γ2 was 145 ± 9%.
By Kd is commonly meant the constant that tells how readily two partners part at equilibrium. With `[3H]C([3H])([3H])N1Cc2c(C(=O)OCC)ncn2-c2ccc(N=[N+]=[N-])cc2C1=O` [Ro 15-4513, ethyl 8-azido-6-oxo-5-(tritritiomethyl)-4H-imidazo[1,5-a][1,4]benzodiazepine-3-carboxylate], the Kd at human α6β3γ2 is 1.83 nM.
For the molecule `FC(F)c1ncn2c1Cn1ncnc1-c1cc(Br)ccc1-2` [RO4938581], the “enhancement of cognitive performance” value with non-impaired rodents was “have not shown enhancement of cognitive performance”. Further, the CYP1A2 autoinduction entry in the data set with CYP1A2 is “strong CYP1A2 autoinduction properties”. Also, the Ki on GABAA α5β3γ2 (ref Ballard et al., 2008) is 4.6 nM; on GABAA α2β3γ2 (ref Ballard et al., 2008) it was 185 nM; at GABAA α3β3γ2 (ref Ballard et al., 2008), 80 nM; on GABAA α1β3γ2 (ref Ballard et al., 2008), 174 nM. The “binding sites of [3H]-Ro 15-4513 in the hippocampus occupied by the compound” value in [1] is listed as “up to 90%”.
